One experiment has as its system BT-474. Kind of experiment: drug sensitivity score (DSS), CellTox Green (DSS (AUC-based score)); higher = stronger drug effect (viability inhibition or cytotoxicity); extreme values may be limits of the assay. The note with it: incubation time: 72 h. The essentials: (§1)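 The drug sensitivity score reflects the area under a fitted dose-response curve. To obtain it, breast cancer cells in 20 µl suspension were seeded into 384-well plates containing compound at 5 concentrations, 10-fold apart over a compound-specific 10,000-fold range, and incubated 72 h. CellTox Green fluorescence (485/520 nm) was read first and CellTiter-Glo luminescence second, after 10 min at room temperature. Each plate was normalised to 0.1 % DMSO and a positive kill control.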

In the next experiment the test system is HCC1143. The experiment is described as above. The following applies: incubation time: 72 h. Put shortly:
as §1

A further experiment relates to MDA-MB-468. The experiment is described as above. The following applies: incubation time: 72 h. The essentials:
as §1

The test system of experiment [1] is CAL-148. Described as above. The note with it: incubation time: 72 h. The essentials:
as §1

The next experiment relates to MCF-10A. The experiment is described as above. The note with it: incubation time: 72 h. The essentials: as §1
A further experiment deals with CAL-120. The description is as above. The note with it: incubation time: 72 h. Put shortly: as §1
The test system of the next experiment is HCC1937. The experiment is described as above. The following applies: incubation time: 72 h. Put shortly:
as §1

The next experiment has as its system HDQ-P1. The description is as above. The note with it: incubation time: 72 h. The essentials: as §1
The subject of experiment [2] is CAL-85-1. The description is as above. The following applies: incubation time: 72 h. Put shortly:
as §1

The subject of experiment [3] is CAL-51. The experiment is described as above. The note with it: incubation time: 72 h. Put shortly: as §1
Another experiment has as its system BT-549. Described as above. The following applies: incubation time: 72 h. Put shortly:
as §1

Experiment [4] relates to DU-4475. The experiment is described as above. The following applies: incubation time: 72 h. Put shortly:
as §1

Experiment [5] deals with MDA-MB-453. The experiment is described as above. The note with it: incubation time: 72 h. The essentials:
as §1

In a further experiment the test system is MDA-MB-436. The experiment is described as above. The note with it: incubation time: 72 h. The essentials:
as §1

A further experiment relates to HCC1599. Described as above. The following applies: incubation time: 72 h. The essentials:
as §1

Experiment [6] has as its system MDA-MB-231. The experiment is described as above. The note with it: incubation time: 72 h. The essentials:
as §1

The test system of a further experiment is MFM-223. Described as above. The following applies: incubation time: 72 h. The essentials: as §1
Another experiment relates to Hs578T. The description is as above. The following applies: incubation time: 72 h. The essentials: as §1
The test system of experiment [7] is CAL-51. Kind of experiment: normalised viability (% of control), CellTiter-Blue; higher = more viable cells (about 100 = DMSO control). The note with it: 10 nM; incubation time: 72 h. The method, then: (§2)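 DSRT, CellTiter-Blue viability, 72 h incubation. Signal is normalised to DMSO and benzethonium chloride controls. Value is the normalised response at dose 3.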

Experiment [8] relates to MDA-MB-231. Described as above. The following applies: 100 nM; incubation time: 72 h. The method, then: as §2
Experiment [9] has as its system CAL-148. The experiment is described as above. The following applies: incubation time: 72 h. The method, then: (§3)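 DSRT, CellTiter-Blue viability, 72 h incubation. Signal is normalised to DMSO and benzethonium chloride controls. Value is the normalised response at dose 7.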
The test system of experiment [10] is CAL-85-1. The description is as above. The following applies: incubation time: 72 h. The method, then: as §3
For experiment [11], the system named is CAL-51. The description is as above. The note with it: incubation time: 72 h. The method, then: as §3
For experiment [12], the system named is DU-4475. The experiment is described as above. The note with it: incubation time: 72 h. How it is done: as §3
Experiment [13] has as its system MDA-MB-453. The experiment is described as above. The following applies: incubation time: 72 h. The method, then: as §3

Values joined by “and” are separate entries in the source; they are usually repeats but may differ in a detail not shown here. Identical values can stand only once.

As to `CC(C)(C)Cn1c(N)nc2ccc(-c3[nH]c(C(C)(C)C)nc3-c3ccc(F)cc3)nc21`, the drug sensitivity score in the experiment on BT-474 was found to be 0; with HCC1143 it was 0; in the experiment on MDA-MB-468 it was 0; in the experiment on CAL-148 [1], 0; in the experiment on MCF-10A, 0; in the experiment with CAL-120, 0.748. Also, the drug sensitivity score stood at 0 with HCC1937; 0 in the experiment on HDQ-P1; 4.77 in the experiment on CAL-85-1 [2]; 0 with CAL-51 [3]; 0 with BT-549; 0 in the experiment on DU-4475 [4]. Further, the drug sensitivity score with MDA-MB-453 [5] came to 0; in the experiment on MDA-MB-436, 2.7; in the experiment on HCC1599, 0; in the experiment on MDA-MB-231 [6] it was 0.996; in the experiment on MFM-223 it was 0.

For the compound `Cn1cc(C[C@@H](N)C(=O)O)c2ccccc21` [1-methyl-D-tryptophan], the drug sensitivity score in the experiment on BT-474 was determined as 0; with HCC1143, 0; with MDA-MB-468 it was 1.22; with CAL-148 [1], 0; in the experiment with MCF-10A, 0; in the experiment on CAL-120, 0. The drug sensitivity score with HCC1937 came to 0; in the experiment with HDQ-P1, 1.12; in the experiment on CAL-85-1 [2], 0; in the experiment with CAL-51 [3], 0; in the experiment with Hs578T it was 3.13; with BT-549, 0. In addition, the drug sensitivity score in the experiment on DU-4475 [4], with MDA-MB-453 [5], with MDA-MB-436, with HCC1599, in the experiment on MDA-MB-231 [6] and with MFM-223 was 0 in each case.

Consider `CC[C@H](CC#N)OC(=O)N[C@@H](C)c1cccc(NC(=O)Nc2ccc(-c3cnco3)c(OC)c2)c1` [AVN944], for which the drug sensitivity score with BT-474, with HCC1143, with MDA-MB-468, in the experiment on CAL-148 [1], in the experiment on MCF-10A and in the experiment on CAL-120 was 0 throughout. Moreover, the drug sensitivity score was 0 in the experiment on HCC1937; 0 with HDQ-P1; 0 with CAL-85-1 [2]; 5.68 with CAL-51 [3]; 12.6 in the experiment with Hs578T; 0 in the experiment on BT-549. The drug sensitivity score in the experiment on DU-4475 [4], with MDA-MB-453 [5], in the experiment on MDA-MB-436, in the experiment with HCC1599, in the experiment with MDA-MB-231 [6] and in the experiment with MFM-223 was 0 each time.

Turning to `Cc1c(N)nc([C@H](CC(N)=O)NC[C@H](N)C(N)=O)nc1C(=O)N[C@H](C(=O)N[C@H](C)[C@@H](O)[C@H](C)C(=O)N[C@H](C(=O)NCCc1nc(-c2nc(C(=O)NCCC[S+](C)C)cs2)cs1)[C@@H](C)O)[C@@H](OC1OC(CO)C(O)C(O)C1OC1OC(CO)C(O)C(OC(N)=O)C1O)c1cnc[nH]1` (some centres undefined) [Bleomycin], the normalised viability in the experiment on CAL-51 [7] was 98.2%; in the experiment with MDA-MB-231 [8] it was 81.8%. Further, the drug sensitivity score stood at 0 with BT-474; 0 in the experiment with HCC1143; 0 in the experiment on MDA-MB-468; 8.42 with CAL-148 [1]; 0 in the experiment with MCF-10A; 0 in the experiment with CAL-120. Further, the drug sensitivity score was determined as 0 in the experiment on HCC1937; 0 in the experiment with HDQ-P1; 0.93 with CAL-85-1 [2]; 19.8 in the experiment on CAL-51 [3]; 1.71 in the experiment with BT-549; 0 with DU-4475 [4]. The drug sensitivity score with MDA-MB-453 [5] came to 0; in the experiment with MDA-MB-436, 2.42; in the experiment on HCC1599, 0; in the experiment on MDA-MB-231 [6], 4.48; in the experiment with MFM-223 it was 0.

Take `CCCCCOC(=O)Nc1nc(=O)n([C@@H]2O[C@H](C)[C@@H](O)[C@H]2O)cc1F` [Capecitabine]: the normalised viability in the experiment on CAL-51 [7] was 110% and 102%; in the experiment on MDA-MB-231 [8], 98.2% and 87%. The drug sensitivity score in the experiment on BT-474, in the experiment on HCC1143, in the experiment with MDA-MB-468, in the experiment with CAL-148 [1], in the experiment with MCF-10A and in the experiment on CAL-120 was 0 in each case. The drug sensitivity score in the experiment on HCC1937, in the experiment on HDQ-P1, in the experiment on CAL-85-1 [2], in the experiment with CAL-51 [3], in the experiment on BT-549 and with DU-4475 [4] was 0 in each case. For the same compound, the drug sensitivity score with MDA-MB-453 [5] was 0; in the experiment on MDA-MB-436, 0; in the experiment on HCC1599, 0; with MDA-MB-231 [6] it was 0; in the experiment on MFM-223 it was 3.74.

Take `CCCCCOC(=O)Nc1nc(=O)n([C@@H]2O[C@H](C)[C@@H](O)[C@H]2O)cc1F` [Capecitabine] (1000 nM): the normalised viability in the experiment with CAL-148 [9] was 105% and 102%; in the experiment on CAL-85-1 [10], 79.7% and 96.2%; in the experiment with CAL-51 [11] it was 106% and 104%; in the experiment with DU-4475 [12], 87.4% and 85.9%; in the experiment on MDA-MB-453 [13], 86.8% and 94.9%.

As to `CCc1cnn2c(NCc3ccc[n+]([O-])c3)cc(N3CCCC[C@H]3CCO)nc12` [Dinaciclib], the drug sensitivity score in the experiment with BT-474 was 3.72; in the experiment with HCC1143, 0; with MDA-MB-468, 19.6; with CAL-148 [1], 9.14; in the experiment on MCF-10A, 6.99; with CAL-120, 1.4. The drug sensitivity score in the experiment with HCC1937 was 0; in the experiment on HDQ-P1, 11.4; with CAL-85-1 [2], 18.4; in the experiment with CAL-51 [3], 8.81; in the experiment with Hs578T, 12.4; in the experiment on BT-549, 0. The drug sensitivity score in the experiment with DU-4475 [4] is 0; with MDA-MB-453 [5], 0; in the experiment with MDA-MB-436, 0; in the experiment with HCC1599, 5.57; in the experiment with MDA-MB-231 [6] it was 25.4; in the experiment on MFM-223, 13.1.

For `Cc1c(C(=O)Nc2ccc(N3C[C@@H](C)O[C@@H](C)C3)nc2)cccc1-c1ccc(OC(F)(F)F)cc1` [Erismodegib], the drug sensitivity score stood at 0 in the experiment on BT-474; 0 with HCC1143; 0 in the experiment with MDA-MB-468; 2.18 with CAL-148 [1]; 0 in the experiment on MCF-10A; 0 in the experiment with CAL-120. The drug sensitivity score in the experiment with HCC1937, with HDQ-P1, in the experiment on CAL-85-1 [2], with CAL-51 [3], with Hs578T and in the experiment on BT-549 was 0 in each case. The drug sensitivity score turned out to be 0 in the experiment on DU-4475 [4]; 0 with MDA-MB-453 [5]; 0 in the experiment on MDA-MB-436; 0 in the experiment on HCC1599; 0.0859 in the experiment on MDA-MB-231 [6]; 0 in the experiment on MFM-223.

With `COc1cc(Nc2ncc(F)c(Nc3ccc4c(n3)N(COP(=O)(O)O)C(=O)C(C)(C)O4)n2)cc(OC)c1OC` [Fostamatinib], the drug sensitivity score in the experiment on BT-474, in the experiment on HCC1143, with CAL-148 [1], in the experiment on MCF-10A, in the experiment with CAL-120 and in the experiment on HCC1937 was 0 throughout. Further, the drug sensitivity score in the experiment with HDQ-P1 came to 0; in the experiment on CAL-85-1 [2], 6.03; in the experiment on CAL-51 [3], 3.3; with Hs578T it was 3.65; with BT-549, 11.4; in the experiment with DU-4475 [4], 0. Moreover, the drug sensitivity score in the experiment with MDA-MB-453 [5] is 0; in the experiment with MDA-MB-436 it was 0; in the experiment with HCC1599, 0; with MDA-MB-231 [6] it was 11.1; in the experiment with MFM-223, 0.
